Measurements from the supplement of paper PMC10290057.

Assays:
HCT116 [1] = assay: efficacy (fitted maximal change in viability relative to DMSO control); higher = less cytotoxic (negative = loss of viability); conditions: 48 h
HCT116 [2] = assay: AC50 cell viability (CellTiter-Glo); higher = less potent; conditions: 48 h
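Throughout, for AC50 cell viability (CellTiter-Glo): HCT116 colorectal carcinoma cells screened at five concentrations per compound, luminescent viability scaled between DMSO wells and empty wells on each plate, curves fitted per compound.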
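Throughout, for efficacy (fitted maximal change in viability relative to DMSO control): Luminescence-based viability readout, five doses per compound, normalized against on-plate DMSO and empty-well controls, followed by dose-response curve fitting for every drug.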

SMILES | efficacy (HCT116 [1]) | AC50 cell viability (HCT116 [2])
C=CC(=O)Nc1ccc2ncnc(Nc3cccc(Br)c3)c2c1 | -86.8% | 13.2 µM
c1ccc(CNc2nc(NCc3ccccc3)c3ccccc3n2)cc1 | -98.7% | 8.33 µM
C/C1=C/C(=C(/CNC(=O)C2=CC(=CC3=C2C=N[N]3C4CCCC4)C5=CC=C(CN6CCOCC6)C=C5)C(=O)N1)C | -108% | 20.9 µM
c1ccc(CNc2nc(N3CCOc4ccccc43)nc3c2CCCC3)cc1 | -42.4% | 20.9 µM
c1ccc2c(-c3cnn4cc(-c5ccc(N6CCNCC6)cc5)cnc34)ccnc2c1 | -104% | 2.35 µM
C/C(=N\NC(=S)N1CCC1)c1ccccn1 | -85.2% | 0.0295 µM
CC(=O)Nc1ccc([C@H](C)C(=O)Nc2ncc(C(C)C)s2)cc1 | -59.3% | 2.09 µM
CC(C)C1=N[N](C\2=C1C(=O)N\C(=N2)CC3=CC=C(OCCO)C=C3)C4=C(Cl)C=CC=C4Cl | -63.1% | 0.0295 µM
CC(C)C[C@H](NC(=O)c1cc2ccccc2s1)C(=O)N1CCN(C(=O)[C@H](CO)N[S+](=O)([O-])c2ccc(Cl)cc2Cl)CC1 | -76.8% | 16.6 µM
CC(C)N(CCC(=O)c1ccc2ccccc2c1)Cc1ccccc1 | -77.8% | 20.9 µM
CC(C)[C@@H](N(CCCN)C(=O)C1=CC=C(C)C=C1)C/2=C(\CC3=CC=CC=C3)C(=O)C4=C(O2)C=C(Cl)C=C4 | -34.7% | 8.33 µM
CC(O)(C#Cc1ccc2c(c1)N(c1nc(N)ncc1Cl)CC2)c1nccs1 (stereo not given) | -76.1% | 16.6 µM
Cc1[nH]c(/C=C2\C(=O)Nc3ccc([S+](=O)([O-])Cc4c(Cl)cccc4Cl)cc32)c(C)c1C(=O)N1CCC[C@@H]1CN1CCCC1 | -92% | 7.42 µM
Cc1cc(-c2cnn3c(NC[C@H]4C[C@@](C)(O)C4)cc(Oc4cccnc4)nc23)ccc1C(=O)NC1CC1 | -56.6% | 0.934 µM
Cc1ccc(-n2c(C)cc(-c3nnc4n3CCCCC4)c2C)cc1 | -47.3% | 20.9 µM
Cc1ccc([S+](=O)([O-])Nc2cc(-c3ccc(C#N)s3)ccc2C)cc1 | -59.9% | 0.0372 µM
Cc1cnc(Nc2ccc(F)cc2Cl)nc1-c1c[nH]c(C(=O)N[C@H](CO)c2cccc(Cl)c2)c1 | -115% | 4.17 µM
Cc1cccc(-c2[nH]c(C(C)(C)C)nc2-c2ccc3c(c2)OCO3)n1 | -86.6% | 2.95 µM
Cc1cccc(-c2n[nH]cc2-c2ccc(F)c(-c3cnn(CCO)c3)c2)n1 | -71.1% | 26.3 µM
CCc1cc(-c2n[nH]c(C)c2-c2ccc3c(c2)OCCO3)c(O)cc1O | -87% | 7.42 µM
CCN1C(=O)N\2CC3=CC(=CC(=C3[C@@H](C)\C=C2C14CCN(CC4)CC5=CC(=CC(=C5)C)C)OC)OC | -91.8% | 23.5 µM
CCOC\1=C(/C(=O)NC2=CC=C(OC3=C(Cl)C(=NC=C3)N)C(=C2)F)C(=O)N(\C=C1)C4=CC=C(F)C=C4 | -67.3% | 18.6 µM

SMILES | efficacy (HCT116 [1]) | AC50 cell viability (HCT116 [2])
CC[C@@H]1[C@H](F)C(=O)N[C@@H]1COc1nccc2cc(C(N)=O)c(OC)cc12 | -66.9% | 13.2 µM
CCn1c(-c2nonc2N)nc2cncc(CNC3CCNCC3)c21 | -43.9% | 10.5 µM
CCn1cc(-c2ccnc3[nH]c(-c4cccc(CN(C)C)c4)cc23)c(-c2ccc(NC(=O)N(C)C)cc2)n1 | -101% | 5.25 µM
CN(C)Cc1ccc(-c2nc3cccc4c3n2CCNC4=O)cc1 | -65.6% | 5.9 µM
CN(c1ncccc1CNc1nc(Nc2ccc3c(c2)CC(=O)N3)ncc1C(F)(F)F)[S+](C)(=O)[O-] | -62.3% | 2.63 µM
Cc1cc(CN2CCN(c3c(Br)cnc4[nH]c(-c5ccc(N6CCN(C)CC6)cc5)nc34)CC2)no1 | -119% | 5.25 µM
Cc1cnc(Nc2ccc(N3CCN(C)CC3)cc2)nc1Nc1cccc([S+](=O)([O-])NC(C)(C)C)c1 | -89.5% | 1.86 µM
CNCCN(C)Cc1c[nH]nc1-c1ccc(O[C@H]2C[C@H](OCCC3CCOCC3)C2)cc1 | -52% | 18.6 µM
COc1ccc(-c2ccc3c(N4CCOCC4)nc(N4C[C@@H](C)O[C@@H](C)C4)nc3n2)cc1CO | -45.6% | 1.66 µM
COc1ncc(-c2ccc3nccc(-c4ccnnc4)c3c2)cc1N[S+](=O)([O-])c1ccc(F)cc1F | -74.6% | 0.105 µM
COc1cccc2c(NCc3ccccc3)nc(-n3c(N)nc4ccccc43)nc12 | -93.4% | 5.9 µM
COc1cccc(Nc2ncnn3ccc(CN4CC[C@@H](N)[C@H](O)C4)c23)c1 | -71.1% | 18.6 µM
COc1cc(-c2nn(C3CCC(N4CCN(C(C)=O)CC4)CC3)c3ncnc(N)c23)ccc1NC(=O)c1cc2ccccc2n1C (stereo not given) | -90.5% | 10.5 µM
COc1cc([S+](C)(=O)[O-])ccc1Nc1nc2ccc(-c3ccc(NC(=O)[C@H](C)c4ccc(F)cc4)cc3)cn2n1 | -30.6% | 0.132 µM
COc1ccc(-c2oc3ncnc(N)c3c2-c2ccc(NC(=O)Nc3cc(C(F)(F)F)ccc3F)cc2)cc1 | -70.5% | 4.68 µM
COc1ccc(CNC(=O)Nc2ncc([N+](=O)[O-])s2)cc1 | -96.6% | 20.9 µM
COc1ccc(Cn2ccc3ccc(C(=O)NO)cc32)cc1 | -71.9% | 16.6 µM
COc1ccc(Oc2cc(NCCC(F)(F)F)c3ncc(-c4ccc(C(=O)NC5CC5)c(C)c4)n3n2)c(F)c1F | -56.8% | 0.372 µM
C[C@@H](N)c1ccc(C(=O)Nc2ccnc3[nH]ccc23)cc1 | -62.4% | 4.68 µM
C[C@@H]1COCCN1c1cc(-c2ccnn2C)c2ccnc(-c3ccn[nH]3)c2n1 | -70.3% | 0.525 µM
C[C@@H](C(=O)Nc1ccc(Cl)cc1)[C@H]1CC[C@@H](c2ccnc3ccc(F)cc32)CC1 | -47.3% | 18.6 µM
C[C@H]1CN(C[C@@H](C)O1)CC(=O)NC2=CC=C3SC4=C(CC3=C2)C=CC=C4\C5=C\C(=O)\C=C(/O5)N6CCOCC6 | -51.9% | 5.9 µM

SMILES | efficacy (HCT116 [1]) | AC50 cell viability (HCT116 [2])
Cc1cccc(CC(=O)N2CCc3c2ccc(-c2cn(C)c4ncnc(N)c24)c3F)n1 | -43.2% | 0.661 µM
C[N]1C=C(C=N1)C2=CC=C3N=CC\4=C(N(C(=O)\C=C4)C5=CC6=C(CCN6C(=O)C=C)C=C5)C3=C2 | -78.5% | 0.512 µM
Cc1cc(C(=O)Nc2cc(Nc3ccc4c(/C=C/c5ccccn5)[nH]nc4c3)ccc2F)n(C)n1 | -99.1% | 10.5 µM
Cn1ncc(Cl)c1-c1cc(C(=O)N[C@H](CN)Cc2ccc(F)c(F)c2)sc1Cl | -116% | 16.6 µM
Cc1nnn(C)c1-c1cnc2c3ccc(C(C)(C)O)cc3n([C@H](c3ccccc3)C3CCOCC3)c2c1 | -82.9% | 0.0186 µM
C[S+](=O)([O-])c1cccc(CNc2nc(Nc3ccc4c(c3)CCC(=O)N4)ncc2C(F)(F)F)c1 | -71.5% | 5.9 µM
O=C(NCc1ccncc1)C12C[C@H]3C[C@@H](C1)CC(c1ccc(Cl)cc1)(C3)C2 | -52.9% | 20.9 µM
FC(F)(F)C1=CC=C2C(SCCCCCO\C3=C\O\C(CN4CCOCC4)=C/C3=O)=CC=NC2=C1 | -67.7% | 18.6 µM
FC1=CC2=C3[N](CCN(CC3=C1)C(=O)N4CCCCC4)C=C2C/5=C(C(=O)NC5=O)\C6=CN=C7C=CC=C[N]67 | -108% | 11.8 µM
O=C(c1ccc(F)cc1)N1CCC[C@H](c2nc(-c3ccc(F)cc3)no2)C1 | -35.7% | 14.8 µM
NC(=O)c1ccccc1Nc1ccnc(Nc2cccc(O)c2)n1 | -95.9% | 5.9 µM
Nc1nc(NCCNc2ncc(-n3ccnc3)c(-c3ccc(Cl)cc3Cl)n2)ccc1[N+](=O)[O-] | -32% | 2.09 µM
Nc1nccc(-c2c(-c3ccc(F)cc3)ncn2C2CCN(Cc3ccon3)CC2)n1 | -56.5% | 13.2 µM
N#Cc1ccc(COC[C@H]2O[C@@H](n3c(NCc4ccc(Cl)c(Cl)c4)nc4c(N)ncnc43)[C@H](O)[C@@H]2O)cc1 | -99.6% | 16.6 µM
NCC(=O)Nc1ccc(-n2nc(C(F)(F)F)cc2-c2ccc3c(ccc4ccccc43)c2)cc1 | -124% | 13.2 µM
NC[C@@](O)(c1ccc(Cl)cc1)c1ccc(-c2cn[nH]c2)cc1 | -109% | 7.42 µM
O=C(NCCCNc1nc(Nc2ccc(N3CCOCC3)cc2)ncc1C1CC1)C1CCC1 | -84.5% | 5.9 µM
OC1=C(Cl)C=C(N\C2=C(\C(=O)NC2=O)C3=C(C=CC=C3)[N+]([O-])=O)C=C1 | -54.8% | 20.9 µM
Oc1ccc(-c2nc(-c3ccncc3)c(-c3ccc(F)cc3)[nH]2)cc1 | -80% | 23.5 µM
OCCC#Cc1nc(-c2ccc(F)cc2)c(-c2ccncc2)n1CCCc1ccccc1 | -64.2% | 23.5 µM
OCCCNc1cc(-c2ccnc(Nc3cccc(Cl)c3)n2)ccn1 | -58.5% | 0.059 µM
